The record followed here is patent US20120003661A1, “METHODS AND DEVICES FOR THE SELECTIVE DETECTION OF MICROORGANISMS” (C3 JIAN, INC., priority 2010, published 2012).

Entries after “also recorded” stand apart in the source; their conditions may differ.

The test system of the first experiment is bacteria, fungi, and/or yeasts. It is filed as binding. The note with it: microorganism(s) listed as target(s) of the targeting peptide; wrapped target lists given cell by cell.
For the substance 1T-14 (ALAGLAGLISGK), the “Target(s)” value is “yeast and hyphal forms”.

For the substance 1T-15 (DVILRVEAQ), the “Target(s)” value was “yeast and hyphal forms”.

As for 1T-16 (IDMR), the “Target(s)” value is “yeast and hyphal forms”.

Take 1T-17 (NNAIVYIS): the “Target(s)” value is “yeast and hyphal forms”.

The same experiment, now with this note: microorganism(s) the targeting peptide binds, as listed in Table 2.
As to 1T-3 (VLGIAGGLDAYGELVGGN), the “Target(s)” value is “S. mutans, S. gordonii”.

As to 1T-4 (LDAYGELVGGN), the “Target(s)” value was “L. casei; also recorded: S. mutans, S. gordonii, S. sanguinis,; also recorded: S. oralis, V. atypica,”.

As for 1T-6 (KFINGVLSQFVLERK), the “Target(s)” value is recorded as “S. mutans”.

With 1T-7 (SQRIIEPVKSPQPYPGFSVS), the “Target(s)” value is “M. xanthus”.

1T-8 (FSVAACGEQRAVTFVLLIEDLI): the “Target(s)” value is “M. xanthus”.

Turning to 1T-9 (WAWAESPRCVSTRSNIHALAFRVEVAALT), the “Target(s)” value is listed as “M. xanthus”.

With 1T-10 (SPAGLPGDGDEA), the “Target(s)” value is “M. xanthus”.

As for 1T-11 (RISE), the “Target(s)” value is given as “S. mutans, S. epidermidis, P. aeruginosa”.

As for 1T-12 (FGNIFKGLKDVIETIVKWTAAK), the “Target(s)” value is recorded as “C. xerosis, C. striatum, S. epidermidis,; also recorded: S. mutans”.

Take 1T-14 (ALAGLAGLISGK): the “Target(s)” value is “S. mutans, S. aureus, S. epidermidis,; also recorded: C. xerosis”.

As for 1T-15 (DVILRVEAQ), the “Target(s)” value is “S. mutans”.

Turning to 1T-16 (IDMR), the “Target(s)” value is “P. aeruginosa”.

For the substance 1T-17 (NNAIVYIS), the “Target(s)” value was “S. mutans”.

As to 1T-18 (YSKTLHFAD), the “Target(s)” value is “S. aureus, S. epidermidis, C. striatum,; also recorded: P. aeruginosa”.

As to 1T-19 (PGAFRNPQMPRG), the “Target(s)” value is on record as “S. aureus, S. epidermidis, P. aeruginosa”.

1T-22 (VPLDDGTRRPEVARNRDKDRED): the “Target(s)” value is on record as “S. epidermidis, P. aeruginosa”.

For the substance 1T-23 (PALVDLSNKEAVWAVLDDHS), the “Target(s)” value is reported as “S. mutans, P. aeruginosa”.

1T-24 (EEAEEKLAEVSQAVKRLVR): the “Target(s)” value is recorded as “P. aeruginosa”.

As for 1T-25 (VGLDVSVLVLFFGLQLLSVLLGAMIR), the “Target(s)” value was “S. aureus, S. epidermidis, C. xerosis,; also recorded: C. striatum, P. aeruginosa”.

In the case of “1T-26 (LTILPTTFFAIIVPILAVAFIAYSGFKIKGIVEHKDQW)”, the “Target(s)” value is listed as “S. mutans, S. aureus, S. epidermidis,; also recorded: C. jeikeium, C. xerosis,; also recorded: C. striatum, P. aeruginosa”.

For 1T-27 (ALFVSLEQFLVVVAKSVFALCHSGTLS), the “Target(s)” value was “S. mutans, S. aureus, S. epidermidis,; also recorded: C. jeikeium, C. xerosis,; also recorded: C. striatum, P. aeruginosa”.

Consider 1T-28 (VSRDEAMEFIDREWTTLQPAGKSHA), for which the “Target(s)” value is reported as “P. aeruginosa”.

Turning to “1T-29 (GSVIKKRRKRMSKKKHRKMLRRTRVQRRKLGK)”, the “Target(s)” value was “S. mutans, S. aureus, S. epidermidis,; also recorded: C. jeikeium, C. xerosis,; also recorded: C. striatum, P. aeruginosa”.

With 1T-30 (GKAKPYQVRQVLRAVDKLETRRKKGGR), the “Target(s)” value is given as “S. aureus, S. epidermidis, C. xerosis,; also recorded: C. striatum, P. aeruginosa”.

On to 1T-31 (NATGTDIGEVTLTLGRFS), for which the “Target(s)” value is reported as “S. mutans, P. aeruginosa”.

Take 1T-32 (VSFLAGWLCLGLAAWRLGNA): the “Target(s)” value was “S. mutans”.

On to “1T-33 (VRTLTILVIFIFNYLKSISYKLKQPFENNLAQSMISI)”, for which the “Target(s)” value is reported as “S. aureus, S. epidermidis, C. jeikeium,; also recorded: C. xerosis, C. striatum,; also recorded: P. aeruginosa”.

Regarding 1T-34 (AFWLNILLTLLGYIPGIVHAVYIIAKR), the “Target(s)” value was “S. aureus, S. epidermidis, C. jeikeium,; also recorded: C. xerosis, C. striatum,; also recorded: P. aeruginosa”.

As to “1T-35 (EICLTLVFPIRGSYSEAAKFPVPIHIVEDGTVELPK)”, the “Target(s)” value is on record as “P. aeruginosa”.

For the substance 1T-37 (YIVGALVILAVAGLIYSMLRKA), the “Target(s)” value is on record as “S. mutans, S. aereus, S. epidermidis,; also recorded: C. jeikeium, C. xerosis,; also recorded: C. striatum, P. aeruginosa”.

For 1T-38 (VMFVLTRGRSPRPMIPAY), the “Target(s)” value is on record as “S. mutans, S. aereus, S. epidermidis,; also recorded: C. jeikeium, C. xerosis,; also recorded: C. striatum, P. aeruginosa”.

In the case of 1T-39 (FGFCVWMYQLLAGPPGPPA), the “Target(s)” value is on record as “S. mutans, P. aeruginosa”.

For the substance 1T-40 (QRVSLWSEVEHEFR), the “Target(s)” value was “S. mutans, P. aeruginosa”.

As for 1T-41 (KRGSKIVIAIAVVLIVLAGVWVW), the “Target(s)” value is given as “S. mutans, S. aureus, S. epidermidis,; also recorded: C. jeikeium, C. striatum,; also recorded: P. aeruginosa”.

On to 1T-42 (TVLDWLSLALATGLFVYLLVALLRADRA), for which the “Target(s)” value is reported as “S. aureus, S. epidermidis, C. xerosis,; also recorded: C. striatum, P. aeruginosa”.

For 1T-43 (DRCLSVLSWSPPKVSPLI), the “Target(s)” value is “C. jeikium, P. aeruginosa”.

For the substance 1T-44 (DPALADFAAGMRAQVRT), the “Target(s)” value is “S. mutans, S. aureus, S. epidermidis,; also recorded: C. jeikeium, C. striatum,; also recorded: P. aeruginosa”.

1T-45 (WTKPSFTDLRLGFEVTLYFANR): the “Target(s)” value is “S. aureus, S. epidermidis, C. striatum,; also recorded: P. aeruginosa”.

Regarding 1T-46 (FSFKQRVMFRKEVERLR), the “Target(s)” value is recorded as “S. aureus, S. epidermidis, C. jeikeium,; also recorded: C. xerosis, C. striatum,; also recorded: P. aeruginosa”.

Consider 1T-47 (VIKISVPGQVQMLIP), for which the “Target(s)” value was “S. mutans, S. epidermidis, P. aeruginosa”.

Turning to 1T-48 (KLQVHHGRATHTLLLQPPLCAPGTIR), the “Target(s)” value is recorded as “S. aureus, S. epidermidis, C. jeikeium,; also recorded: C. xerosis, C. striatum,; also recorded: P. aeruginosa”.

On to 1T-49 (SLVRIHDQQPWVTRGAFIDAARTCS), for which the “Target(s)” value is reported as “S. aureus, S. epidermidis, C. jeikeium,; also recorded: P. aeruginosa”.

As to 1T-50 (HSDEPIPNILFKSDSVH), the “Target(s)” value is on record as “P. aeruginosa”.

In the case of 1T-51 (GKPKRMPAEFIDGYGQALLAGA), the “Target(s)” value is “S. aureus, P. aeruginosa”.

In the case of 1T-52 (DEYPAKLPLSDKGATEPRRH), the “Target(s)” value is on record as “S. aureus, C. xerosis, P. aeruginosa”.

For the substance 1T-53 (SDILAEMFEKGELQTLVKDAAAKANA), the “Target(s)” value is “P. aeruginosa”.

Turning to 1T-54 (RWVSCNPSWRIQ), the “Target(s)” value is “S. epidermidis, C. xerosis, C. striatum,; also recorded: P. aeruginosa”.

Regarding 1T-55 (NHKTLKEWKAKWGPEAVESWATLLG), the “Target(s)” value was “C. xerosis, P. aeruginosa”.

Turning to 1T-56 (LALIGAGIWMIRKG), the “Target(s)” value was “C. xerosis, P. aeruginosa”.

In the case of 1T-57 (RLEYRRLETQVEENPESGRRPMRG), the “Target(s)” value is on record as “P. aeruginosa”.

For the substance 1T-58 (CDDLHALERAGKLDALLSA), the “Target(s)” value was “P. aeruginosa”.

Take 1T-59 (AVGNNLGKDNDSGHRGKKHRKHKHR): the “Target(s)” value is on record as “S. aureus, S. epidermidis, P. aeruginosa”.

In the case of 1T-60 (YLTSLGLDAAEQAQGLLTILKG), the “Target(s)” value is “S. aureus, S. epidermidis, C. jeikeium,; also recorded: C. striatum, P. aeruginosa”.

For the substance 1T-61 (HATLLPAVREAISRQLLPALVPRG), the “Target(s)” value was “P. aeruginosa”.

Take 1T-62 (GCKGCAQRDPCAEPEPYFRLR): the “Target(s)” value is “S. epidermidis, P. aeruginosa”.

Regarding 1T-63 (EPLILKELVRNLFLFCYARALR), the “Target(s)” value is recorded as “S. aureus, S. epidermidis, C. jeikeium,; also recorded: C. xerosis, C. striatum,; also recorded: P. aeruginosa”.

Take 1T-64 (QTVHHIHMHVLGQRQMHWPPG): the “Target(s)” value is on record as “S. aureus, S. epidermidis, C. jeikeium,; also recorded: C. xerosis, C. striatum,; also recorded: P. aeruginosa”.

Regarding 1T-66 (DTDCLSRAYAQRIDELDKQYAGIDKPL), the “Target(s)” value is listed as “S. mutans, S. aureus, S. epidermidis,; also recorded: C. jeikeium, C. xerosis,; also recorded: C. striatum, P. aeruginosa”.

Turning to 1T-67 (GQRQRLTCGRVSGCSEGPSREAAR), the “Target(s)” value is listed as “S. aureus, S. epidermidis, C. jeikeium,; also recorded: C. xerosis, C. striatum,; also recorded: P. aeruginosa”.

1T-69 (ILSQEADRKKLF): the “Target(s)” value is recorded as “S. mutans, P. aeruginosa”.

In the case of 1T-71 (KIDTNQWPPNKEG), the “Target(s)” value was “P. aeruginosa”.

For the substance 1T-72 (EPTDGVACKER), the “Target(s)” value is recorded as “P. aeruginosa”.

On to 1T-73 (GWWEELLHETILSKFKITKALELPIQL), for which the “Target(s)” value was “S. pneumoniae”.

Turning to 1T-74 (DIDWGRKISCAAGVAYGAIDGCATTV), the “Target(s)” value is “S. pneumoniae”.

1T-75 (GVARGLQLGIKTRTQWGAATGAA): the “Target(s)” value is on record as “S. pneumoniae”.

As for 1T-76 (EMRLSKFFRDFILWRKK), the “Target(s)” value is reported as “S. pneumoniae”.

In the case of 1T-77 (EMRISRIILDFLFLRKK), the “Target(s)” value is on record as “S. pneumoniae”.

1T-78 (FFKTIFVLILGALGVAAGLYIEKNYIDK): the “Target(s)” value is on record as “S. pneumoniae”.

Take 1T-79 (FGTPWSITNFWKKNFNDRPDFDSDRRRY): the “Target(s)” value is reported as “S. pneumoniae”.

For the substance 1T-80 (GGNLGPGFGVIIP), the “Target(s)” value is listed as “S. pneumoniae”.

Take 1T-81 (AIATGLDIVDGKFDGYLWA): the “Target(s)” value was “S. pneumoniae”.

For the substance 1T-82 (FGVGVGIALFMAGYAIGKDLRKKFGKSC), the “Target(s)” value is reported as “S. pneumoniae”.

Consider 1T-83 (QKPRKNETFIGYIQRYDIDGNGYQSLPCPQN), for which the “Target(s)” value is given as “S. pneumoniae”.

With “1T-84 (FRKKRYGLSILLWLNAFTNLVNSIHAFYMTLF)”, the “Target(s)” value is “S. pneumoniae”.

Regarding 1T-85 (VMASLTWRMRAASASLPTHSRTDA), the “Target(s)” value is “A. naeslundii, F. nucleatum, P. gingivalis,; also recorded: S. epidermidis, S. gordonii,; also recorded: S. mitis, S. mutans, S. oralis,; also recorded: S. salivarious, S. sanguinis”.

Turning to 1T-86 (HRKNPVLGVGRRHRAHNVA), the “Target(s)” value is listed as “S. mitis, S. oralis, S. salivarious”.

For the substance 1T-87 (EAVGQDLVDAHHP), the “Target(s)” value was “S. mitis, S. mutans, S. oralis”.

In the case of 1T-89 (HEDDKRRGMSVEVLGFEVVQHEE), the “Target(s)” value is given as “S. mitis, S. mutans”.

As for 1T-90 (RNVIGQVL), the “Target(s)” value is recorded as “S. gordonii, S. mitis, S. mutans,; also recorded: S. oralis, S. sanguinis”.

Consider 1T-91 (TSVRPGAAGAAVPAGAAGAAGAGWRWP), for which the “Target(s)” value is recorded as “S. mitis, S. mutans, S. oralis, S. sanguinis”.

As to 1T-92 (GQDEGQRRAGVGEGQGVDG), the “Target(s)” value is on record as “S. mitis, S. mutans”.
